From PubChem BioAssay AID2060617 (Molecular Pharmacology Branch, DTP, NCI, 2025)

Tested on: 485368-065-R4-J2-PDC spheroids with HUVEC/MSC, viability
Test: Anticancer human tumor 485368-065-R4-J2-PDC patient-derived pancreatic carcinoma cell line growth inhibition [CLK]
Details: for IC50: curve of first compound; for viability, T/C: stronger effect = lower value
Procedure, shortened: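 Patient-derived tumor cells grown as complex spheroids with HUVEC endothelial cells and mesenchymal stem cells, treated with drug combinations. Concentrations descend in half-log steps from near clinical Cmax, or from 10 microM if Cmax unknown.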

[1] = second compound 0.0316 µM, first compound 0.0316 µM
[2] = second compound 0.0316 µM, first compound 0.1 µM
[3] = second compound 0.0316 µM, first compound 0.316 µM
[4] = second compound 0.0316 µM, first compound 1 µM
[5] = second compound 0.1 µM, first compound 0.0316 µM
[6] = second compound 0.1 µM, first compound 0.1 µM
[7] = second compound 0.1 µM, first compound 0.316 µM
[8] = second compound 0.1 µM, first compound 1 µM
[9] = second compound 0.316 µM, first compound 0.0316 µM
[10] = second compound 0.316 µM, first compound 0.1 µM
[11] = second compound 0.316 µM, first compound 0.316 µM
[12] = second compound 0.316 µM, first compound 1 µM
[13] = second compound 1 µM, first compound 0.0316 µM
[14] = second compound 1 µM, first compound 0.1 µM
[15] = second compound 1 µM, first compound 0.316 µM
[16] = second compound 1 µM, first compound 1 µM
[17] = second compound 3.16 µM, first compound 0.0316 µM
[18] = second compound 3.16 µM, first compound 0.1 µM
[19] = second compound 3.16 µM, first compound 0.316 µM
[20] = second compound 3.16 µM, first compound 1 µM
[21] = second compound 10 µM, first compound 0.0316 µM
[22] = second compound 10 µM, first compound 0.1 µM
[23] = second compound 10 µM, first compound 0.316 µM
[24] = second compound 10 µM, first compound 1 µM
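Also: spheroids exposed to compounds for seven days.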
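For viability, T/C in this document: 100% = DMSO vehicle control wells.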

C=CC(=O)Nc1cc(Nc2nccc(-c3cn(C)c4ccccc34)n2)c(OC)cc1N(C)CCN(C)C + CN1CCN(c2cc(C(=O)Nc3cc4cc(-c5cnn(C)c5)ccc4cn3)ccn2)CC1
IC50 (second compound 0.0316 µM): > 300 nM
IC50 (second compound 0.1 µM): > 300 nM
IC50 (second compound 0.316 µM): > 300 nM
IC50 (second compound 1 µM): < 0.949 nM
IC50 (second compound 3.16 µM): < 0.949 nM
IC50 (second compound 10 µM): < 0.949 nM
viability, T/C (second compound 0.0316 µM, first compound 0.000949 µM): 106%
viability, T/C (second compound 0.0316 µM, first compound 0.003 µM): 113%
viability, T/C (second compound 0.0316 µM, first compound 0.00949 µM): 99.1%
viability, T/C (second compound 0.0316 µM, first compound 0.03 µM): 101%
viability, T/C (second compound 0.0316 µM, first compound 0.0949 µM): 103%
viability, T/C (second compound 0.0316 µM, first compound 0.3 µM): 100%
viability, T/C (second compound 0.1 µM, first compound 0.000949 µM): 114%
viability, T/C (second compound 0.1 µM, first compound 0.003 µM): 113%
viability, T/C (second compound 0.1 µM, first compound 0.00949 µM): 112%
viability, T/C (second compound 0.1 µM, first compound 0.03 µM): 113%
viability, T/C (second compound 0.1 µM, first compound 0.0949 µM): 105%
viability, T/C (second compound 0.1 µM, first compound 0.3 µM): 103%
viability, T/C (second compound 0.316 µM, first compound 0.000949 µM): 75.7%
viability, T/C (second compound 0.316 µM, first compound 0.003 µM): 83.8%
viability, T/C (second compound 0.316 µM, first compound 0.00949 µM): 84.6%
viability, T/C (second compound 0.316 µM, first compound 0.03 µM): 85.3%
viability, T/C (second compound 0.316 µM, first compound 0.0949 µM): 82.7%
viability, T/C (second compound 0.316 µM, first compound 0.3 µM): 74.2%
viability, T/C (second compound 1 µM, first compound 0.000949 µM): 1.06%
viability, T/C (second compound 1 µM, first compound 0.003 µM): 1.02%
viability, T/C (second compound 1 µM, first compound 0.00949 µM): 0.96%
viability, T/C (second compound 1 µM, first compound 0.03 µM): 0.9%
viability, T/C (second compound 1 µM, first compound 0.0949 µM): 1.6%
viability, T/C (second compound 1 µM, first compound 0.3 µM): 0.54%
viability, T/C (second compound 3.16 µM, first compound 0.000949 µM): 1.42%
viability, T/C (second compound 3.16 µM, first compound 0.003 µM): 2.3%
viability, T/C (second compound 3.16 µM, first compound 0.00949 µM): 1.16%
viability, T/C (second compound 3.16 µM, first compound 0.03 µM): 2.05%
viability, T/C (second compound 3.16 µM, first compound 0.0949 µM): 2.29%
viability, T/C (second compound 3.16 µM, first compound 0.3 µM): 2.5%
viability, T/C (second compound 10 µM, first compound 0.000949 µM): 1.61%
viability, T/C (second compound 10 µM, first compound 0.003 µM): 3.07%
viability, T/C (second compound 10 µM, first compound 0.00949 µM): 1.3%
viability, T/C (second compound 10 µM, first compound 0.03 µM): 1.38%
viability, T/C (second compound 10 µM, first compound 0.0949 µM): 2.42%
viability, T/C (second compound 10 µM, first compound 0.3 µM): 2.16%

CCN1CCN(Cc2ccc(Nc3ncc(F)c(-c4cc(F)c5nc(C)n(C(C)C)c5c4)n3)nc2)CC1 + CN1CCN(c2cc(C(=O)Nc3cc4cc(-c5cnn(C)c5)ccc4cn3)ccn2)CC1
IC50 (second compound 0.0316 µM): > 1000 nM
IC50 (second compound 0.1 µM): > 1000 nM
IC50 (second compound 0.316 µM): > 1000 nM
IC50 (second compound 1 µM): < 3.16 nM
IC50 (second compound 3.16 µM): < 3.16 nM
IC50 (second compound 10 µM): < 3.16 nM
viability, T/C (second compound 0.0316 µM, first compound 0.00316 µM): 94.5%
viability, T/C (second compound 0.0316 µM, first compound 0.01 µM): 116%
viability, T/C [1]: 110%
viability, T/C [2]: 138%
viability, T/C [3]: 132%
viability, T/C [4]: 120%
viability, T/C (second compound 0.1 µM, first compound 0.00316 µM): 103%
viability, T/C (second compound 0.1 µM, first compound 0.01 µM): 112%
viability, T/C [5]: 113%
viability, T/C [6]: 113%
viability, T/C [7]: 126%
viability, T/C [8]: 109%
viability, T/C (second compound 0.316 µM, first compound 0.00316 µM): 79%
viability, T/C (second compound 0.316 µM, first compound 0.01 µM): 76.1%
viability, T/C [9]: 79.3%
viability, T/C [10]: 78.9%
viability, T/C [11]: 66.8%
viability, T/C [12]: 60.7%
viability, T/C (second compound 1 µM, first compound 0.00316 µM): 0.99%
viability, T/C (second compound 1 µM, first compound 0.01 µM): 0.79%
viability, T/C [13]: 1.5%
viability, T/C [14]: 1.72%
viability, T/C [15]: 3.79%
viability, T/C [16]: 6.61%
viability, T/C (second compound 3.16 µM, first compound 0.00316 µM): 1.45%
viability, T/C (second compound 3.16 µM, first compound 0.01 µM): 1.98%
viability, T/C [17]: 1.44%
viability, T/C [18]: 3.25%
viability, T/C [19]: 3.87%
viability, T/C [20]: 6.47%
viability, T/C (second compound 10 µM, first compound 0.00316 µM): 1.45%
viability, T/C (second compound 10 µM, first compound 0.01 µM): 1.41%
viability, T/C [21]: 2.59%
viability, T/C [22]: 1.89%
viability, T/C [23]: 2.62%
viability, T/C [24]: 3.7%

Nc1ccccc1NC(=O)c1ccc(CNC(=O)OCc2cccnc2)cc1 + CN1CCN(c2cc(C(=O)Nc3cc4cc(-c5cnn(C)c5)ccc4cn3)ccn2)CC1
IC50 (second compound 0.0316 µM): 6960 nM
IC50 (second compound 0.1 µM): 7560 nM
IC50 (second compound 0.316 µM): 2520 nM
IC50 (second compound 1 µM): < 31.6 nM
IC50 (second compound 3.16 µM): < 31.6 nM
IC50 (second compound 10 µM): < 31.6 nM
viability, T/C [1]: 88.7%
viability, T/C [2]: 105%
viability, T/C [3]: 91%
viability, T/C [4]: 97.7%
viability, T/C (second compound 0.0316 µM, first compound 3.16 µM): 91.6%
viability, T/C (second compound 0.0316 µM, first compound 10 µM): 30.7%
viability, T/C [5]: 109%
viability, T/C [6]: 118%
viability, T/C [7]: 99.1%
viability, T/C [8]: 102%
viability, T/C (second compound 0.1 µM, first compound 3.16 µM): 93.1%
viability, T/C (second compound 0.1 µM, first compound 10 µM): 36.2%
viability, T/C [9]: 81.1%
viability, T/C [10]: 82.1%
viability, T/C [11]: 66.8%
viability, T/C [12]: 68.6%
viability, T/C (second compound 0.316 µM, first compound 3.16 µM): 45.5%
viability, T/C (second compound 0.316 µM, first compound 10 µM): 15.6%
viability, T/C [13]: 1.64%
viability, T/C [14]: 1.49%
viability, T/C [15]: 1.21%
viability, T/C [16]: 0.42%
viability, T/C (second compound 1 µM, first compound 3.16 µM): 0.41%
viability, T/C (second compound 1 µM, first compound 10 µM): 1.05%
viability, T/C [17]: 1.12%
viability, T/C [18]: 1.85%
viability, T/C [19]: 3.03%
viability, T/C [20]: 1.14%
viability, T/C (second compound 3.16 µM, first compound 3.16 µM): 1.31%
viability, T/C (second compound 3.16 µM, first compound 10 µM): 1.7%
viability, T/C [21]: 1.94%
viability, T/C [22]: 2.06%
viability, T/C [23]: 1.81%
viability, T/C [24]: 2.05%
viability, T/C (second compound 10 µM, first compound 3.16 µM): 1.05%
viability, T/C (second compound 10 µM, first compound 10 µM): 1.74%
